Measured values published in patent US20240124504A1, “AROMATIC HETEROCYCLIC COMPOUND, AND PHARMACEUTICAL COMPOSITION AND APPLICATION THEREOF” (GT APEIRON THERAPEUTICS LIMITED, priority 2020, published 2024).

What was measured:
ovarian cancer A2780 = experiment: Cell biological activity detection (CyQuant, 72 hours), A2780; type: cell-based, human; conditions: Homo sapiens, A2780, 72 h, A2780 cells, incubation for 72 hours
Procedure, shortened: (§1)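 A2780 and HCC70 cells seeded at 2000/well in RPMI 1640 + 10% FBS, treated next day with 9-point compound dilutions (top 10 μM, 1:4; 0.2% DMSO) for 72 h at 37 °C. Cell number read by CyQuant Direct nucleic acid stain (ex 488 nm); IC50 from dose–response fit.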

CDK9/cyclinT1 complex = CDK9/cyclinT1 complex (Homo sapiens, UniProt P50750); experiment: In-vitro enzymatic inhibitory activity testing, CDK9 inhibition assay (Caliper EZ Reader II); type: biochemical; conditions: CDK9/cyclinT1 8 nM, 180 min at 27° C.
Chain of CDK9/cyclinT1 complex (P50750 whole entry, species assumed): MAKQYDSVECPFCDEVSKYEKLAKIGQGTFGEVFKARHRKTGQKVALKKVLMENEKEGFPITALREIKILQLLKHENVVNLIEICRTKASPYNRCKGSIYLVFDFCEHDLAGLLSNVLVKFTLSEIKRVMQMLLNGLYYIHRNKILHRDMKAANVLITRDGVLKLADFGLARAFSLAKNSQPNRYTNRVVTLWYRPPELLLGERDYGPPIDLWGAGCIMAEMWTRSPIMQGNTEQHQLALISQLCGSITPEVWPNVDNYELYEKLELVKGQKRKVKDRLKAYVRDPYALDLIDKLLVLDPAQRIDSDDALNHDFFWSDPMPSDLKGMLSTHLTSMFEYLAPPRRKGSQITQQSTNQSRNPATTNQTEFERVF
Chain of CDK9/cyclinT1 complex (O60563 whole entry partner, species assumed): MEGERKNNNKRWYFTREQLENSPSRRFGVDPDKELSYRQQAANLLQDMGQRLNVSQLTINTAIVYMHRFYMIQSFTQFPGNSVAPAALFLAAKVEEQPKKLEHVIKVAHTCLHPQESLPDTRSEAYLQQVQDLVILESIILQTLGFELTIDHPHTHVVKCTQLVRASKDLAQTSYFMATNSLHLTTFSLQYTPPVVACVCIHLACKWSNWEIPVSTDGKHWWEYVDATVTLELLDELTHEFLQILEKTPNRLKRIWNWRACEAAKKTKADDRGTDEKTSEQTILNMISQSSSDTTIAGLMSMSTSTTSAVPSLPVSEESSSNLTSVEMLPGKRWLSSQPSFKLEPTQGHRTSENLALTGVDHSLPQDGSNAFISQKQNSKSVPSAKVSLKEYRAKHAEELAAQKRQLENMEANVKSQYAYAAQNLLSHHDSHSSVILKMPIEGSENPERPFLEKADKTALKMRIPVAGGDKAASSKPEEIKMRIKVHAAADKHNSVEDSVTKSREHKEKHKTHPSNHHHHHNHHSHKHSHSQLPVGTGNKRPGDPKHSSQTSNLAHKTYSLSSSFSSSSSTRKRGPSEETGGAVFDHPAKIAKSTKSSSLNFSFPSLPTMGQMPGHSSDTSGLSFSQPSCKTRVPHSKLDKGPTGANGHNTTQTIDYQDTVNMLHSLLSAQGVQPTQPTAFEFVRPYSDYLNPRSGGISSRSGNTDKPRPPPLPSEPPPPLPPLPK
Procedure, shortened: (§2)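 Enzyme preincubated 10 min with compound, then peptide substrate plus ATP added in 80 mM MES pH 6.5, 10 mM MgCl2 buffer; 180 min at 27 °C, stopped with EDTA.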

[1] = target: CDK7/cyclinH/MAT1 complex (Homo sapiens, UniProt P50613); experiment: In-vitro enzymatic inhibitory activity testing, CDK7 inhibition assay (Caliper EZ Reader II); type: biochemical; conditions: CDK7/cyclinH/MAT1 6 nM, 180 min at 27° C.
Chain of CDK7/cyclinH/MAT1 complex (P50613 whole entry, species assumed): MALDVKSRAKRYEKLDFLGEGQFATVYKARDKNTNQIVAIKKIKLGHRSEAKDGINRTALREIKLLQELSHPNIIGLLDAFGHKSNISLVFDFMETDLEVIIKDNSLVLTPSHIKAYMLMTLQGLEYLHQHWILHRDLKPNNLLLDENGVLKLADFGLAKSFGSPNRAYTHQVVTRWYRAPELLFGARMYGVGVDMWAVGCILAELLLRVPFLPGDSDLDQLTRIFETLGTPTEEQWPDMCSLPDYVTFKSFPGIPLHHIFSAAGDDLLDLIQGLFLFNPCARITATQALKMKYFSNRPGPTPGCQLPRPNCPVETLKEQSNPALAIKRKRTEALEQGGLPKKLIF
Chain of CDK7/cyclinH/MAT1 complex (P51946 whole entry partner, species assumed): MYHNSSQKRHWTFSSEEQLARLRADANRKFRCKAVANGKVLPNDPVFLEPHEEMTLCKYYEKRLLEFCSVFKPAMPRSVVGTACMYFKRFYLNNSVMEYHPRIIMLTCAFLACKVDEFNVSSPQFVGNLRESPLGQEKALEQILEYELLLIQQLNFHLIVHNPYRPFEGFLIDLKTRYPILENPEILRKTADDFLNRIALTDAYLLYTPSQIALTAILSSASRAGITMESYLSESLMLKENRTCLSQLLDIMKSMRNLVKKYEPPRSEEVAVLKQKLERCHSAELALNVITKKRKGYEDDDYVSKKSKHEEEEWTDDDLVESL
Chain of CDK7/cyclinH/MAT1 complex (P51948 whole entry partner, species assumed): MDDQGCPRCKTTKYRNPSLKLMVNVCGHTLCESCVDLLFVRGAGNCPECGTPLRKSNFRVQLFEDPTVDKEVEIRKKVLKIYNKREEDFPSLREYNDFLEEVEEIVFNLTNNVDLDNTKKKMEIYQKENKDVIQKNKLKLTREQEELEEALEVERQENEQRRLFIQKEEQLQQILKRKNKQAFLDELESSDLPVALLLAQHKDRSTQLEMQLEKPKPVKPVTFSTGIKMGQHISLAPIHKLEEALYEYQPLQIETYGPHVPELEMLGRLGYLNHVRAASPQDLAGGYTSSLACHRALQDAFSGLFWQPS
Procedure, shortened: as §2

[2] = system: human breast cancer cells HCC70; experiment: Cell biological activity detection (CyQuant, 72 hours), HCC70; type: cell-based; conditions: Homo sapiens, HCC70, 72 h, incubation for 72 hours
Procedure, shortened: as §1

[3] = Caco-2 membrane permeability and efflux rate; type: in vitro ADME; conditions: human, Caco-2, Caco-2, 5 μM; for Papp B→A at 2 h, 5 μM: basal end to top end; for efflux ratio at 2 h, 5 μM: read-out: ER (efflux rate); for Papp A→B at 2 h, 5 μM: top end to basal end
Method: The recovered Caco-2 cell suspension was seeded into a […] plate and cultured for 14-18 days. After being cultured for 14 days, the cells were fused and differentiated to be ready for a transport experiment. The Caco-2 cell plate was taken out from the incubator. Stock solutions of a to-be-tested compound and a control compound were formulated with DMSO and diluted with an HBSS (10 mM HEPES, pH 7.4) buffer to a final concentration of 5 μM. A test compound solution and a control drug solution were added to each well (top end) of an insert culture plate, and the HBSS (10 mM HEPES, pH 7.4) buffer was added to each well of a test compound receiving plate (basal end). When measuring the transport rate of the compound from the basal end to the top end, the test compound solution and the control drug solution were added to each well of the receiving plate (basal end), the HBSS (10 mM HEPES, pH 7.4) buffer solution was added to each well (top end) of the insert culture plate for the test compound solution, and incubation was carried out for 2 hours in a CO2 incubator at 37° C. After the transport experiment was completed, vortexing was carried out for 10 minutes at 1000 rpm. After sample quenching at each time point, LC/MS/MS analysis was carried out. A fluorescence value was measured after a two-hour transport experiment, a lucifer yellow solution was added in a transwell chamber (top end), a transport buffer solution was added in the basal end, and incubation was carried out for 30 minutes in the CO2 incubator at 37° C. The solution was taken out directly from the top end and the basal end (using basolateral wells) and transferred to a new 96-well plate. A cell fluorescence value was measured by a microplate reader (to detect membrane integrity), an excitation wavelength was […], and an emission wavelength was […]. All data were calculated by using Microsoft Excel, and a peak area was calculated according to chromatograms. An apparent permeability coefficient (Papp, unit: 10-6, cm/s) and an efflux rate (ER) of the compounds in Caco-2 cells were calculated by the specific concentrations of a receiving end and an administering end.

Row | SMILES | IC50 (ovarian cancer A2780) | IC50 (CDK9/cyclinT1 complex) | IC50 [1] | IC50 [2] | Papp B→A at 2 h, 5 μM [3] | efflux ratio at 2 h, 5 μM [3] | Papp A→B at 2 h, 5 μM [3]
1 | CP(C)(=O)c1cccc2c(-c3nc(NC4(CO)CC(F)(F)C4)ncc3C(F)(F)F)c[nH]c12 [Compound 96, (3-(2-((3,3-difluoro-1-(hydroxymethyl)cyclobutyl)amino)-5-(trifluoromethyl)pyrimidin-4-yl)-1H-indole-7-yl)dimethylphosphine oxide] | < 0.02 µM | > 50 µM | 0.02 to 0.2 µM | < 0.02 µM | 26.1 ×10⁻⁶ cm/s | 14.1 | 1.86 ×10⁻⁶ cm/s
2 | CP(C)(=O)c1cccc2c(-c3nc(NCCO)ncc3C(F)(F)F)c[nH]c12 [Compound 97, (3-(2-((2-hydroxyethyl)amino)-5-(trifluoromethyl)pyrimidin-4-yl)-1H-indole-7-yl)dimethylphosphine oxide] | < 0.02 µM | > 50 µM | < 0.02 µM | 0.02 to 0.2 µM | 32.3 ×10⁻⁶ cm/s | 20.8 | 1.55 ×10⁻⁶ cm/s
3 | CP(C)(=O)c1cccc2c(-c3nc(NCC(F)(F)CO)ncc3C(F)(F)F)c[nH]c12 [Compound 102, (3-(2-((2,2-difluoro-3-hydroxypropyl)amino)-5-(trifluoromethyl)pyrimidin-4-yl)-1H-indole-7-yl)dimethylphosphine oxide] | < 0.02 µM | > 50 µM | < 0.02 µM | < 0.02 µM | 26.8 ×10⁻⁶ cm/s | 7.8 | 3.43 ×10⁻⁶ cm/s
4 | C[C@@H](CO)Nc1ncc(Cl)c(-c2c[nH]c3c(P(C)(C)=O)cccc23)n1 [Compound 103, (S)-(3-(5-chloro-2-((1-hydroxypropan-2-yl)amino)pyrimidin-4-yl)-1H-indole-7-yl)dimethylphosphine oxide] | 0.02 to 0.2 µM | > 50 µM | 0.02 to 0.2 µM | 0.02 to 0.2 µM | 36.1 ×10⁻⁶ cm/s | 5.38 | 6.7 ×10⁻⁶ cm/s
5 | CP(C)(=O)c1cccc2c(-c3nc(NC4(CO)CC(F)C4)ncc3C(F)(F)F)c[nH]c12 (centres unmarked) [Compound 105, (3-(2-((3-fluoro-1-(hydroxymethyl)cyclobutyl)amino)-5-(trifluoromethyl)pyrimidin-4-yl)-1H-indole-7-yl)dimethylphosphine oxide] | 0.02 to 0.2 µM | > 50 µM | 0.02 to 0.2 µM | 0.02 to 0.2 µM | 21.9 ×10⁻⁶ cm/s | 7.32 | 2.99 ×10⁻⁶ cm/s
6 | CP(C)(=O)c1cccc2c(-c3nc(NC4(CO)COC4)ncc3C(F)(F)F)c[nH]c12 [Compound 114, (3-(2-((3-(hydroxymethyl)oxetan-3-yl)amino)-5-(trifluoromethyl)pyrimidin-4-yl)-1H-indole-7-yl)dimethylphosphine oxide] | < 0.02 µM | > 50 µM | < 0.02 µM | < 0.02 µM | 25.4 ×10⁻⁶ cm/s | 31.9 | 0.8 ×10⁻⁶ cm/s
7 | CP(C)(=O)c1cccc2c(-c3nc(NCC4CC(O)C4)ncc3C(F)(F)F)c[nH]c12 (centres unmarked) [Compound 126, (3-(2-(((3-hydroxycyclobutyl)methyl)amino)-5-(trifluoromethyl)pyrimidin-4-yl)-1H-indole-7-yl)dimethylphosphine oxide] | 0.02 to 0.2 µM | > 50 µM | < 0.02 µM | 0.02 to 0.2 µM | 24.6 ×10⁻⁶ cm/s | 7.41 | 3.32 ×10⁻⁶ cm/s
8 | CP(C)(=O)c1cccc2c(-c3nc(NC[C@H]4C[C@](C)(O)C4)ncc3C(F)(F)F)c[nH]c12 [Compound 127, (3-(2-(((trans-3-hydroxy-3-methylcyclobutyl)methyl)amino)-5-(trifluoromethyl)pyrimidin-4-yl)-1H-indole-7-yl)dimethylphosphine oxide] | < 0.02 µM | > 50 µM | < 0.02 µM | < 0.02 µM | 22.4 ×10⁻⁶ cm/s | 5.86 | 3.82 ×10⁻⁶ cm/s
9 | CN(C)[C@H]1CC[C@H](Nc2ncc(C(F)(F)F)c(-c3c[nH]c4c(P(C)(C)=O)cccc34)n2)C1 [Compound 137, (3-(2-(((1S,3S)-3-(dimethylamino)cyclopentyl)amino)-5-(trifluoromethyl)pyrimidin-4-yl)-1H-indole-7-yl)dimethylphosphine oxide] | < 0.02 µM | 5 to 50 µM | < 0.02 µM | < 0.02 µM | 34.6 ×10⁻⁶ cm/s | 12.4 | 2.79 ×10⁻⁶ cm/s
10 | CP(C)(=O)c1cccc2c(-c3nc(N[C@@H]4CC[C@H]4O)ncc3C(F)(F)F)c[nH]c12 [Compound 153, (3-(2-(((1R,2R)-2-hydroxycyclobutyl)amino)-5-(trifluoromethyl)pyrimidin-4-yl)-1hydro-indole-7-yl)dimethylphosphine oxide] | 0.02 to 0.2 µM | > 50 µM | < 0.02 µM | < 0.02 µM | 24.8 ×10⁻⁶ cm/s | 5.94 | 4.17 ×10⁻⁶ cm/s
11 | CP(C)(=O)c1cccc2c(-c3nc(N[C@H]4CC[C@@H]4O)ncc3C(F)(F)F)c[nH]c12 [Compound 154, (3-(2-(((1S,2S)-2-hydroxycyclobutyl)amino)-5-(trifluoromethyl)pyrimidin-4-yl)-1hydro-indole-7-yl)dimethylphosphine oxide] | < 0.02 µM | 5 to 50 µM | < 0.02 µM | < 0.02 µM | 26.4 ×10⁻⁶ cm/s | 5.97 | 4.42 ×10⁻⁶ cm/s
12 | CP(C)(=O)c1cccc2c(-c3nc(N[C@H]4CCC[C@@H]4O)ncc3C(F)(F)F)c[nH]c12 [Compound 155, (3-(2-(((1S,2S)-2-hydroxycyclopentyl)amino)-5-(trifluoromethyl)pyrimidin-4-yl)-1hydro-indole-7-yl)dimethylphosphine oxide] | < 0.02 µM | 5 to 50 µM | < 0.02 µM | < 0.02 µM | 24 ×10⁻⁶ cm/s | 4.31 | 5.57 ×10⁻⁶ cm/s
13 | CP(C)(=O)c1cccc2c(-c3nc(N[C@@H]4CCC[C@H]4O)ncc3C(F)(F)F)c[nH]c12 [Compound 156] | 0.02 to 0.2 µM | 5 to 50 µM | 0.02 to 0.2 µM | < 0.02 µM | 20.6 ×10⁻⁶ cm/s | 3.87 | 5.32 ×10⁻⁶ cm/s
14 | C[C@@H](CO)Nc1ncc(C(F)(F)F)c(-c2c[nH]c3c(P(C)(C)=O)cc(F)cc23)n1 [Compound 158] | < 0.02 µM | > 50 µM | < 0.02 µM | < 0.02 µM | 28.6 ×10⁻⁶ cm/s | 5.65 | 5.07 ×10⁻⁶ cm/s
15 | CP(C)(=O)c1cccc2c(-c3nc(NC4(CO)CCC4)ncc3C(F)(F)F)c[nH]c12 [Compound 168, (3-(2-((1-(hydroxymethyl)cyclobutyl)amino)-5-(trifluoromethyl)pyrimidin-4-yl)-1H-indole-7-yl)dimethylphosphine oxide] | 0.02 to 0.2 µM | > 50 µM | < 0.02 µM | 0.02 to 0.2 µM | 17.1 ×10⁻⁶ cm/s | 2.14 | 7.99 ×10⁻⁶ cm/s
16 | CP(C)(=O)c1cccc2c(-c3nc(NC45CC(O)(C4)C5)ncc3C(F)(F)F)c[nH]c12 [Compound 174, (3-(2-((3-hydroxybicyclo[1.1.1]pentan-1-yl)amino)-5-(trifluoromethyl)pyrimidin-4-yl)-1H-indole-7-yl)dimethylphosphine oxide] | < 0.02 µM | 5 to 50 µM | < 0.02 µM | < 0.02 µM | 34.8 ×10⁻⁶ cm/s | 17.1 | 2.03 ×10⁻⁶ cm/s
17 | C[C@@H](CO)Nc1ncc(C#N)c(-c2c[nH]c3c(P(C)(C)=O)cccc23)n1 [Compound 179, (S)-4-(7-(dimethylphosphoryl)-1H-indole-3-yl)-2-((1-hydroxypropan-2-yl)amino)pyrimidine-5-carbonitrile] | 0.02 to 0.2 µM | > 50 µM | < 0.02 µM | 0.02 to 0.2 µM | 33.5 ×10⁻⁶ cm/s | 65.9 | 0.51 ×10⁻⁶ cm/s
